Experimental data as given in patent US10940139B2, “Compounds that interact with the Ras superfamily for the treatment of cancers, inflammatory diseases, rasopathies, and fibrotic disease” (Shy Therapeutics LLC, priority 2017, dated 2021).
Read-outs that look alike come from different tables or passages of the source. One block for each compound: values may come before it.

Key:
[1] = system: TNFα production in RAW 264.7 macrophage cell line; test: Mouse TNF alpha quantification assay (LPS-stimulated macrophages, ELISA); assay type: cell-based; conditions: RAW264.7, RAW 264.7 murine leukemia virus transformed macrophage cell lines, LPS stimulation, read-out: TNF-α % Inhibition at 30 μM
[2] = system: IL6 production in RAW 264.7 macrophage cell line; test: Mouse IL6 quantification assay (LPS-stimulated macrophages, ELISA); assay type: cell-based; conditions: RAW264.7, RAW 264.7 murine leukemia virus transformed macrophage cell lines, LPS stimulation, read-out: IL-6 % Inhibition at 30 μM
[3] = molecular target: KRas G12D/Q61H double mutant (Homo sapiens (Human), UniProt P01116, G12D/Q61H); test: Ras GTP binding domain inhibition assay (labeled GTP)
Method in brief: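 Ni-plate capture of His-KRas (3-10 μg/ml, o/n, 4° C); Tris pH 7.5/MgCl2/DTT buffer, 1% DMSO. Cpd 20 μM or titration, 3 h RT. Cy3/Cy5-GTP 45 min RT, wash, fluorescence of bound GTP.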

[4] = 20 μM compound, read-out: % Inhibition at 20 μM KRas G12D Q61H
[5] = 20 μM compound, KRas G12D/Q61H double mutant, read-out: % Inhibition at 20 μM of K-Ras mutant and wild-type protein, KRas G12D Q61H
[6] = 20 μM, read-out: KRas G12D Q61H % Inh.

Sequence of KRas G12D/Q61H double mutant (P01116-2 other isoform, or with tags, fused parts or gaps G12D/Q61H): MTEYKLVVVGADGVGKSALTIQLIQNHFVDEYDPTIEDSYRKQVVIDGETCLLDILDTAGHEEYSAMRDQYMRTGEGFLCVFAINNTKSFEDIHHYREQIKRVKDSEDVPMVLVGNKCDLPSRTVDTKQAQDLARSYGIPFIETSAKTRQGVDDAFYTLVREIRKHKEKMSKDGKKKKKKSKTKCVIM

SMILES: CN(CC(=O)Nc1nnc(-c2ccccn2)[nH]1)S(=O)(=O)c1ccccc1 [drawing 2001]
- inhibition at 30 µM [1]: 0%
- inhibition at 30 µM [2]: 1 to 25%

SMILES: OC1CCN(c2nc(-c3ccccn3)nc3scc(-c4ccccc4)c23)CC1 [drawing 2156]
- inhibition at 30 µM [1]: 1 to 25%
- inhibition at 30 µM [2]: 26 to 50%

SMILES: O=C(c1csc2c(O)nc(-c3ccccn3)nc12)N1CCOC(c2ccccc2Cl)C1 (stereo not shown) [drawing 2194]
- inhibition at 30 µM [1]: 1 to 25%
- inhibition at 30 µM [2]: 76 to 100%

SMILES: O=C(Nc1nnc(-c2ccccn2)[nH]1)c1ccn(-c2cccc(F)c2)n1 [drawing 1938]
- inhibition at 30 µM [1]: 0%
- inhibition at 30 µM [2]: 26 to 50%

SMILES: CC(C)COc1ccc(-c2csc3c(O)nc(-c4cn(C)cn4)nc23)cn1 [drawing 2432]
- inhibition at 30 µM [1]: 26 to 50%
- inhibition at 30 µM [2]: 76 to 100%

SMILES: CCN(CC)S(=O)(=O)c1cc(C)c(C)c(NC(=O)CCc2c(C)nc(-c3ccccn3)nc2O)c1 [drawing 2037]
- inhibition at 30 µM [1]: 1 to 25%
- inhibition at 30 µM [2]: 0%

SMILES: COCCNc1nc(-c2nccn2C)nc2sc(C3CCOCC3)c(-c3ccccc3)c12 [drawing 2417]
- inhibition at 30 µM [1]: 76 to 100%
- inhibition at 30 µM [2]: 76 to 100%

SMILES: Cn1ccnc1-c1nc(O)c2sc(-c3ccccc3)c(-c3ccccc3Cl)c2n1 [drawing 2422]
- inhibition at 30 µM [1]: 51 to 75%
- inhibition at 30 µM [2]: 76 to 100%

SMILES: CC(C)Oc1ccc(-c2csc3c(O)nc(-c4nccn4C)nc23)cc1F [drawing 2436]
- inhibition at 30 µM [1]: 0%
- inhibition at 30 µM [2]: 1 to 25%

SMILES: COCCNc1nc(-c2ccccn2)nc2c1c(-c1ccccc1)nn2-c1ccccn1 [drawing 2365]
- inhibition at 30 µM [1]: 51 to 75%
- inhibition at 30 µM [2]: 76 to 100%

SMILES: CC(C)(C)c1sc2c(O)nc(-c3ccccn3)nc2c1Br [drawing 2381]
- inhibition at 30 µM [1]: 1 to 25%
- inhibition at 30 µM [2]: 0%

SMILES: O=C(Cc1ccc2c(c1)OCCO2)Nc1nnc(-c2ccccn2)[nH]1 [drawing 1997]
- inhibition at 30 µM [1]: 1 to 25%
- inhibition at 30 µM [2]: 0%

SMILES: O=C(c1ccccn1)N1CCCc2c(O)nc(-c3ccccn3)nc21 [drawing 2087]
- inhibition at 30 µM [1]: 1 to 25%
- inhibition at 30 µM [2]: 1 to 25%

SMILES: O=C(CCc1cncnc1)Nc1nc(-c2ccccn2)nc2sccc12 [drawing 2283]
- inhibition at 30 µM [1]: 0%
- inhibition at 30 µM [2]: 26 to 50%

SMILES: CCOC(=O)C1CCCC1N(Cc1cccc([N+](=O)[O-])c1)C1CC1 (stereo not shown)
- inhibition at 20 µM [3, 4]: 25 to 50%

SMILES: CC(C)(CN1CCN(c2cccc(Cl)c2)CC1)NS(=O)(=O)c1ccccc1
- inhibition at 20 µM [3, 5]: 25 to 50%

SMILES: c1ccc(-c2csc3nc(-c4ccccn4)nc(NCCN4CCOCC4)c23)cc1
- inhibition at 20 µM [3, 4]: 25 to 50%

SMILES: O=C(c1csc2c(O)nc(-c3ccccn3)nc12)N1CCNC(c2cccc(Cl)c2)C1 (stereo not shown)
- inhibition at 20 µM [3, 4]: 25 to 50%

SMILES: Cc1ccc2cccc(OS(=O)(=O)N3CCOCC3)c2n1
- inhibition at 20 µM [3, 4]: 25 to 50%

SMILES: Nc1nc(-c2ccccn2)nn1C(=O)CN1CCS(=O)(=O)CC1
- inhibition at 20 µM [3, 4]: 25 to 50%

SMILES: COc1ccc2c(c1)C(N(Cc1ccccc1)Cc1nc(CC(C)C)no1)CCO2 (stereo not shown)
- inhibition at 20 µM [3, 5]: 25 to 50%

SMILES: COc1ccc(CCNC(=O)c2cc(S(=O)(=O)N3CCOCC3)ccc2OC)cc1OC
- inhibition at 20 µM [3, 4]: 1 to 25%

SMILES: CN(Cc1ccc(S(=O)(=O)N(C)C)o1)c1ccccc1-c1ccccc1
- inhibition at 20 µM [3, 5]: 1 to 25%

SMILES: c1ccc(Cc2nc(CN(CCn3cccn3)Cc3csc(Cc4ccccc4)n3)cs2)cc1
- inhibition at 20 µM [3, 5]: 1 to 25%

SMILES: CCSC1CCCCC1NCc1nc(-c2ccc(OC(F)F)c(OC)c2)no1 (stereo not shown)
- inhibition at 20 µM [3, 5]: 25 to 50%

SMILES: COC(=O)c1cc(Cn2nc(C(=O)OC)c(Br)c2C2CC2)c(C)s1
- inhibition at 20 µM [3, 5]: 25 to 50%

SMILES: CCc1cc(CNc2cc(C)c([N+](=O)[O-])c(C(=O)OC)c2)on1
- inhibition at 20 µM [3, 4]: 25 to 50%

SMILES: O=C(c1ccc(-c2ccccc2Cl)o1)N(Cc1cccs1)C1CC1
- inhibition at 20 µM [3, 4]: 25 to 50%

SMILES: O=C(Cc1ccccc1F)Nc1nnc(-c2ccccn2)[nH]1
- inhibition at 20 µM [3, 6]: 51 to 75%

SMILES: CCCc1cc(=O)oc2cc(OCc3cc(C(=O)OC)c(C)o3)ccc12
- inhibition at 20 µM [3, 5]: 25 to 50%

SMILES: O=c1c(Cl)cc(C(F)(F)F)cn1Cc1csc(COc2ccc(Cl)cc2)n1
- inhibition at 20 µM [3, 5]: 1 to 25%

SMILES: CN(Cc1ccc(C(=O)NCC(F)(F)F)cc1)Cc1ccc(F)cc1Cl
- inhibition at 20 µM [3, 4]: 25 to 50%

SMILES: CCOCc1c(C(=O)N(Cc2cccs2)Cc2ccccc2OC)oc2ccccc12
- inhibition at 20 µM [3, 4]: 1 to 25%

SMILES: COc1ccc(S(=O)(=O)N2CCCCCC2)cc1C(=O)NCCc1ccccc1C
- inhibition at 20 µM [3, 5]: 1 to 25%

SMILES: O=S(=O)(Oc1c(Cl)cc(Cl)c2cccnc12)N1CCCCCC1
- inhibition at 20 µM [3, 4]: 25 to 50%

SMILES: COC(=O)C1CCN(S(=O)(=O)NCCOc2ccc(C(C)(C)C)cc2)CC1
- inhibition at 20 µM [3, 5]: 25 to 50%

SMILES: Clc1ccccc1-c1nnc(CN2CCCc3ccccc32)o1
- inhibition at 20 µM [3, 4]: 25 to 50%

SMILES: OCC1CCCN(c2nc(-c3ccccn3)nc3scc(-c4ccccc4)c23)C1 (stereo not shown)
- inhibition at 20 µM [3, 4]: 25 to 50%

SMILES: CC(C)N1CC(C(=O)Nc2nnc(-c3ccccn3)[nH]2)CC1=O (stereo not shown)
- inhibition at 20 µM [3, 4]: 25 to 50%

SMILES: O=C(c1csc2c(O)nc(-c3ccccn3)nc12)N1CCN(c2ccc(Cl)cc2)CC1
- inhibition at 20 µM [3, 4]: 25 to 50%

SMILES: FC(F)(F)C1CCCN(Cc2ccccc2CN2CCCC(C(F)(F)F)C2)C1 (stereo not shown)
- inhibition at 20 µM [3, 5]: 25 to 50%

SMILES: CCc1nc2ccccc2c(C(=O)OCC(=O)c2cc(C)n(CCOC)c2C)c1C
- inhibition at 20 µM [3, 5]: 1 to 25%

SMILES: O=C(Nc1nnc(-c2ccccn2)[nH]1)C1CC(c2ccccc2)C1 (stereo not shown)
- inhibition at 20 µM [3, 4]: 25 to 50%

SMILES: COc1ccc(N(C(=O)c2ccc(COc3ccccc3)o2)C(C)C2CC2)cc1 (stereo not shown)
- inhibition at 20 µM [3, 5]: 25 to 50%

SMILES: O=C(Oc1ccc(Oc2ccccc2)cc1)c1ccccc1-c1ccc(C(F)(F)F)cc1
- inhibition at 20 µM [3, 5]: 25 to 50%

SMILES: CC(C)N(Cc1nnc(-c2ccc(Cl)cc2Cl)o1)c1ccc(F)cc1
- inhibition at 20 µM [3, 6]: 25 to 50%

Second part, the compound after the results:

- inhibition at 20 µM [3, 6]: 51 to 75%
SMILES: O=C(CCn1ccc2ccccc21)Nc1nnc(-c2ccccn2)[nH]1 [drawing 2462]

- inhibition at 20 µM [3, 6]: 51 to 75%
SMILES: CSc1nc(C2CC2)cc(C(=O)NCCc2ccc(S(=O)(=O)NC(=O)c3cc(C4CC4)nc(SC)c3C#N)cc2)c1C#N [drawing 2634]

- inhibition at 20 µM [3, 4]: 1 to 25%
SMILES: Nc1nc(O)c2scc(C(=O)N3CCC(N4CCOCC4)CC3)c2n1 [drawing 2662]

- inhibition at 20 µM [3, 4]: 1 to 25%
SMILES: CS(=O)(=O)CCCNC(=O)c1csc2nc(-c3ccccn3)nc(N3CCOCC3)c12 [drawing 2811]

- inhibition at 20 µM [3, 6]: 51 to 75%
SMILES: COCCCn1ccc(Nc2cc(C)nc(-c3ccccn3)n2)n1 [drawing 2606]

- inhibition at 20 µM [3, 6]: 51 to 75%
SMILES: Cc1nc(-c2ccccn2)sc1C(=O)Nc1nnc(-c2ccccn2)[nH]1 [drawing 2532]

- inhibition at 20 µM [3, 6]: 51 to 75%
SMILES: Cc1noc(C)c1CC(=O)Nc1nnc(-c2ccccn2)[nH]1 [drawing 2492]

- inhibition at 20 µM [3, 6]: 25 to 50%
SMILES: COc1ccc(CN(CC[S+]([O-])c2cc(Cl)ccc2Cl)C2CC2)cc1 (stereo not shown) [drawing 2625]

- inhibition at 20 µM [3, 6]: 51 to 75%
SMILES: NC(=O)c1ccc(OCC(=O)Nc2nnc(-c3ccccn3)[nH]2)cc1 [drawing 2538]

- inhibition at 20 µM [3, 6]: 25 to 50%
SMILES: CCC(C)(C)c1ccc(OCCCC(=O)NC(C(=O)OC)C(C)C)c(C(C)(C)CC)c1 (stereo not shown) [drawing 2619]

- inhibition at 20 µM [3, 4]: 0%
SMILES: O=S(=O)(CCc1ccccc1)N1CCCc2c(O)nc(-c3ccccn3)nc21 [drawing 2651]

- inhibition at 20 µM [3, 4]: 25 to 50%
SMILES: CN(CCc1ccncc1)C(=O)c1csc2c(O)nc(-c3ccccn3)nc12 [drawing 2688]

- inhibition at 20 µM [3, 6]: 51 to 75%
- IC50 ([3]; read-out: KRas G12D Q61H IC50): < 5 µM
SMILES: CC(Oc1cccc(C#N)c1)C(=O)Nc1nnc(-c2ccccn2)[nH]1 (stereo not shown) [drawing 2511]

- inhibition at 20 µM [3, 4]: 1 to 25%
SMILES: Brc1csc2nc(-c3ccccn3)nc(N3CCOCC3)c12 [drawing 2701]

- inhibition at 20 µM [3, 6]: 51 to 75%
SMILES: Cc1sc2[nH]c(-c3ccccn3)nc(=O)c2c1-c1ccccc1 [drawing 2586]

- inhibition at 20 µM [3, 4]: 25 to 50%
SMILES: O=C(c1cocn1)N1CCCc2c(O)nc(-c3ccccn3)nc21 [drawing 2649]

- inhibition at 20 µM [3, 4]: 1 to 25%
SMILES: Nc1nc(O)c2scc(Br)c2n1 [drawing 2657]

- inhibition at 20 µM [3, 4]: 1 to 25%
SMILES: Nc1nc(O)c2scc(C(=O)NCCc3cccnc3)c2n1 [drawing 2670]

- inhibition at 20 µM [3, 4]: 25 to 50%
SMILES: COc1ccc(CN2CCN(C(=O)c3csc4c(O)nc(-c5ccccn5)nc34)CC2)cc1 [drawing 2725]

- inhibition at 20 µM [3, 4]: 25 to 50%
SMILES: COc1ccc(COCC(=O)Nc2ccnc(-c3ccccn3)n2)cn1 [drawing 2699]

- inhibition at 20 µM [3, 5]: 25 to 50%
SMILES: COc1ccc(OC)c(CCC(=O)N2CCN(c3ncc(C(F)(F)F)cc3Cl)CC2)c1

- inhibition at 20 µM [3, 5]: 51 to 75%
SMILES: CC(C)c1ccc(CSc2nnc(SCCNC(=O)C3CCCC3)s2)cc1

- inhibition at 20 µM [3, 4]: 1 to 25%
SMILES: O=S(=O)(c1ccccc1)N1CCCc2c(O)nc(-c3ccccn3)nc21 [drawing 2652]

- inhibition at 20 µM [3, 6]: 51 to 75%
SMILES: O=C(Cc1ccc2c(c1)OCO2)Nc1nnc(-c2ccccn2)[nH]1 [drawing 2549]
